Usually IC50 stands for the concentration that gives 50% inhibition.

Consider 23 compounds from patent publication US20230174556A1, “COMPOUNDS AS PROTEIN KINASE INHIBITORS” (Fochon Biosciences, Ltd., priority 2020, published 2023).

For the assay, the system named is OCI-LY10 (PI3Kδ dependent) cells. Nature of the assay: OCI-LY10 cell proliferation assay (MTS). Format: cell-based. To be noted: inhibition of OCI-LY10 cells proliferation, 72 h incubation, MTS readout at 490 nm. How it is done:
MTS testing kit was purchased from Promega (Madison, WI, USA). The RPMI-1640, Fetal bovine serum and Penicillin-Streptomycin were purchased from BI (Biological Industries, Beit Haemek, Israel). Dimethyl sulfoxide (DMSO) was purchased from Sigma (St. Louis., MO, USA). OCI-LY10 cells were cultured in RPMI1640 supplemented with Penicillin-Streptomycin and 10% FBS.
To investigate whether a compound is able to inhibit the activity of PI3Kδ in cells, a mechanism-based assay using OCI-LY10 (PI3Kδ dependent) cells was developed. In this assay, inhibition of PI3Kδ was detected by the inhibition of OCI-LY10 cells proliferation. Cells were plated into 96-well plates at a density of 10000 cells/well. Plates were incubated at 37° C., with 5 % CO2 for 4 h. Compounds were serially diluted and added to the plates with the final compound concentrations as 10000, 3333.3, 1111.1, […], 123.5, 41.2, 13.7, 4.6 and 1.5 nM. Plates were incubated at 37° C., with 5 % CO2 for 72 h. 20 µl MTS was added into each well and the plates were incubated at 37° C., with 5 % CO2 for exactly 2 h. The absorbance was measured by a microplate reader at 490 nm. IC50 was calculated using GraphPad Prism 5.0 software.

`COc1ncc(-c2nn([C@@H](C)c3cc4scc(C)n4c(=O)c3-c3cccc(F)c3)c3ncnc(N)c23)cc1NS(C)(=O)=O` [Example 77, (S)-N-(5-(4-amino-1-(1-(6-(3-fluorophenyl)-3-methyl-5-oxo-5H-thiazolo[3,2-a]pyridin-7-yl)ethyl)-1H-pyrazolo[3,4-d]pyrimidin-3-y1)-2-methoxypyridin-3-yl)methanesulfonamide] came in with a half-inhibitory concentration (IC50) of 1 nM.

Compound `COc1ncc(-c2nn([C@@H](C)c3cc4scc(Cl)n4c(=O)c3-c3ccccc3)c3ncnc(N)c23)cc1NS(C)(=O)=O` [Example 78, (S)-N-(5-(4-amino-1-(1-(3-chloro-5-oxo-6-phenyl-5H-thiazolo[3,2-α]pyridin-7-yl)ethyl)-1H-pyrazolo[3,4-d]pyrimidin-3-yl)-2-methoxypyridin-3-yl)metha nesulfonamide] displayed an IC50 of 3 nM.

For `COc1ncc(-c2nn([C@@H](C)c3cc4scc(Cl)n4c(=O)c3-c3cccc(F)c3)c3ncnc(N)c23)cc1NS(C)(=O)=O` [Example 79, (S)-N-(5-(4-amino-1-(1-(3-chloro-6-(3-fluorophenyl)-5-oxo-5H-thiazolo[3,2-a]pyridin-7-yl)ethyl)-1H-pyrazolo[3,4-d]pyrimidin-3-yl)-2-methoxypyridin-3-yl)methanesulfonamide], inhibition (Homo sapiens, OCI-Ly10, 72 h) was half-maximal at 2 nM (IC50).

The compound `Cc1csc2cc([C@H](C)n3nc(-c4ccc(OC(C)C)c(C#N)c4)c4c(N)ncnc43)c(-c3ccccc3)c(=O)n12` [Example 82, (S)-5-(4-amino-1-(1-(3-methyl-5-oxo-6-phenyl-5H-thiazolo[3,2-α]pyridin-7-yl)ethyl)-1H-pyrazolo[3,4-d]pyrimidin-3-yl)-2-isopropoxybenzonitrile] came in with an IC50 of 1 nM.

Turning to `Cc1csc2cc([C@H](C)n3nc(-c4ccc(OC(C)C)c(C#N)c4)c4c(N)ncnc43)c(-c3cccc(F)c3)c(=O)n12` [Example 83, (S)-5-(4-amino-1-(1-(6-(3-fluorophenyl)-3-methyl-5-oxo-5H-thiazolo[3,2-α]pyridin-7-yl)ethyl)-1H-pyrazolo[3,4-d]pyrimidin-3-yl)-2-isopropoxybenzonitrile], half-maximal inhibition (IC50) was put at 1 nM.

Consider `CC(C)Oc1ccc(-c2nn([C@@H](C)c3cc4scc(Cl)n4c(=O)c3-c3ccccc3)c3ncnc(N)c23)cc1C#N` [Example 84, (S)-5-(4-amino-l-(1-(3-chloro-5-oxo-6-phenyl-5H-thiazolo[3,2-α]pyridin-7-yl)ethyl)-1H-pyrazolo[3,4-d]pyrimidin-3-yl)-2-isopropoxy benzonitrile], for which the IC50 was 1 nM.

`CC(C)Oc1ccc(-c2nn([C@@H](C)c3cc4scc(Cl)n4c(=O)c3-c3cccc(F)c3)c3ncnc(N)c23)cc1C#N` [Example 85, (S)-5-(4-amino-1-(1-(3-chloro-6-(3-fluorophenyl)-5-oxo-5H-thiazolo[3,2-α]pyridin-7-yl)ethyl)-1H-pyrazolo[3,4-d]pyrimidin-3-yl)-2-isopropoxybenzonitrile] came in with an IC50 of 8 nM.

Compound `CC(C)Oc1ccc(-c2nn([C@@H](C)c3cc4scc(Cl)n4c(=O)c3-c3ccccc3)c3ncnc(N)c23)cn1` [Example 86, (S)-7-(1-(4-amino-3-(6-isopropoxypyridin-3-yl)-1H-pyrazolo[3,4-d]pyrimidin-1-yl)ethyl)-3-chloro-6-phenyl-5H-thia zolo [3,2-α] pyridin-5-one] had an IC50 of 2 nM.

`CC(C)Oc1ccc(-c2nn([C@@H](C)c3cc4scc(Cl)n4c(=O)c3-c3cccc(F)c3)c3ncnc(N)c23)cn1` [Example 87, (S)-7-(1-(4-amino-3-(6-isopropoxypyridin-3-yl)-1H-pyrazolo[3,4-d]pyrimidin-1-yl)ethyl)-3-chloro-6-(3-fluoropheny 1)-5H-thiazol[3,2-α]pyridin-5-one] showed an IC50 of 64 nM.

Consider `Cc1csc2cc([C@H](C)n3nc(-c4cnc(OC(C)C)nc4)c4c(N)ncnc43)c(-c3ccccc3)c(=O)n12` [Example 88, (S)-7-(1-(4-amino-3-(2-isopropoxypyrimidin-5-yl)-1H-pyrazolo[3,4-d]pyrimidin-1-yl)ethyl)-3-methyl-6-phenyl-5H-thiazolo[3,2-α]pyridin-5-one], for which the IC50 worked out at 34 nM.

Regarding `Cc1csc2cc([C@H](C)n3nc(-c4cnc(OC(C)C)nc4)c4c(N)ncnc43)c(-c3cccc(F)c3)c(=O)n12` [Example 89, (S)-7-(1-(4-amino-3-(2-isopropoxypyrimidin-5-yl)-1H-pyrazolo[3,4-d]pyrimidin-1-yl)ethyl)-6-(3-fluorophenyl)-3-methyl-5H-thiazolo[3,2-α]pyridin-5-one], it took 73 nM to reach half-maximal inhibition (IC50).

As to `CC(C)Oc1ncc(-c2nn([C@@H](C)c3cc4scc(Cl)n4c(=O)c3-c3ccccc3)c3ncnc(N)c23)cn1` [Example 90, (S)-7-(1-(4-amino-3-(2-isopropoxypyrimidin-5-yl)-1H-pyrazolo[3,4-d]pyrimidin-1-yl)ethyl)-3-chloro-6-phenyl-5H-thiazolo[3,2-α]pyridin-5-one], it took 7 nM to reach half-maximal inhibition (IC50).

The compound `CC(C)Oc1ncc(-c2nn([C@@H](C)c3cc4scc(Cl)n4c(=O)c3-c3ccccc3)c3ncnc(N)c23)cc1F` [Example 94, (S)-7-(1-(4-amino-3-(5-fluoro-6-isopropoxypyridin-3-yl)-1H-pyrazolo[3,4-d]pyrimidin-1-yl)ethyl)-3-chloro-6-phenyl-5H-thiazolo[3,2-α]pyridin-5-one] showed an IC50 of 30 nM.

As for `Cc1csc2cc([C@H](C)n3nc(-c4cnc(OC(C)C)c(C#N)c4)c4c(N)ncnc43)c(-c3ccccc3)c(=O)n12` [Example 96, (S)-5-(4-amino-1-(1-(3-methyl-5-oxo-6-phenyl-5H-thiazolo[3,2-α]pyridin-7-yl)ethyl)-1H-pyrazolo[3,4-d]pyrimidin-3-yl)-2-isopropoxynicotinonitrile], half-maximal inhibition (IC50) required 21 nM.

In turn, `Cc1csc2cc([C@H](C)n3nc(-c4cnc(OC(C)C)c(C#N)c4)c4c(N)ncnc43)c(-c3cccc(F)c3)c(=O)n12` [Example 97, (S)-5-(4-amino-1-(1-(6-(3-fluoropheny 1)-3-methyl-5-oxo-5H-thiazolo[3,2-α]pyridin-7-yl)ethyl)-1H-pyrazolo[3,4-d]pyrimidin-3-yl)-2-isopropoxynicotinoni trile] gave an IC50 of 44 nM.

`CC(C)Oc1ncc(-c2nn([C@@H](C)c3cc4scc(Cl)n4c(=O)c3-c3ccccc3)c3ncnc(N)c23)cc1C#N` [Example 98, (S)-5-(4-amino-1-(1-(3-chloro-5-oxo-6-phenyl-5H-thiazolo[3,2-α]pyridin-7-y 1)ethyl)-1H-pyrazolo[3,4-d]pyrimidin-3-yl)-2-isopropoxynicotinonitrile] had an IC50 of 8 nM.

For `CC(C)Oc1ncc(-c2nn([C@@H](C)c3cc4scc(Cl)n4c(=O)c3-c3cccc(F)c3)c3ncnc(N)c23)cc1C#N` [Example 99, (S)-5-(4-amino-1-(1-(3-chloro-6-(3-fluorophenyl)-5-oxo-5H-thiazolo[3,2-α]pyridin-7-yl)ethyl)-1H-pyrazolo[3,4-d]pyrimidin-3-yl)-2-isopropoxynicotinoni trile], 8 nM corresponded to half-maximal inhibition (IC50).

Take `Cc1csc2nc([C@H](C)n3nc(-c4cnc(OC(C)C)c(C#N)c4)c4c(N)ncnc43)c(-c3cccc(F)c3)c(=O)n12` [Example 100]: it took 1 nM to reach half-maximal inhibition (Homo sapiens, OCI-Ly10, 72 h) (IC50).

As for `Cc1csc2nc([C@H](C)n3nc(-c4ccc(OC(C)C)c(C#N)c4)c4c(N)ncnc43)c(-c3cccc(F)c3)c(=O)n12` [Example 101, (S)-5-(4-amino-1-(1-(6-(3-fluoropheny 1)-3-methyl-5-oxo-5H-thiazolo[3,2-α]pyrimidin-7-yl)ethyl)-1H-pyrazolo[3,4-d]pyrimidin-3-yl)-2-isopropoxybenzon itrile], half-maximal inhibition (IC50) was put at 18 nM.

In turn, `Cc1csc2nc([C@H](C)n3nc(-c4ccc(OC(C)C)nc4)c4c(N)ncnc43)c(-c3cccc(F)c3)c(=O)n12` [Example 102, (S)-7-(1-(4-amino-3-(6-isopropoxypyridin-3-yl)-1H-pyrazolo[3,4-d]pyrimidin-1-yl)ethyl)-6-(3-fluorophenyl)-3-methyl-5H-thiazolo[3,2-α]pyrimidin-5-one] returned an IC50 of 70 nM.

Consider `COc1ncc(-c2nn([C@@H](C)c3cc4scc(C)n4c(=O)c3-c3cccc(F)c3)c3ncnc(N)c23)cn1` [Example 103, (S)-7-(1-(4-amino-3-(2-methoxypyrimidin-5-yl)-1H-pyrazolo[3,4-d]pyrimidin-1-yl)ethyl)-6-(3-fluorophenyl)-3-met hyl-5H-thiazolo[3,2-α]pyridin-5-one], for which the IC50 was 22 nM.

`COc1ncc(-c2nn([C@@H](C)c3cc4scc(Cl)n4c(=O)c3-c3cccc(F)c3)c3ncnc(N)c23)cn1` [Example 104, (S)-7-(1-(4-amino-3-(2-methoxypyrimidin-5-yl)-1H-pyrazolo[3,4-d]pyrimidin-1-yl)ethyl)-3-chloro-6-(3-fluorophenyl)-5H-thiazolo[3,2-a]pyridin-5-one] showed a 50% inhibitory concentration (IC50) (Homo sapiens, OCI-Ly10, 72 h) of 64 nM.

In the case of `Cc1csc2nc([C@H](C)n3nc(-c4cnc(OC(C)C)c(F)c4)c4c(N)ncnc43)c(-c3cccc(F)c3)c(=O)n12` [Example 105, (S)-7-(1-(4-amino-3-(5-fluoro-6-isopropoxypyridin-3-yl)-1H-pyrazolo[3,4-d]pyrimidin-1-yl)ethyl)-6-(3-fluorophenyl)-3-methyl-5H-thiazolo[3,2-α]pyrimidin-5-one], inhibition was half-maximal at 70 nM (IC50).
